Entries after “also recorded” stand apart in the source; their conditions may differ.
How the values were obtained:
[1] = Spectrophotometric titration, inclusion complex formation with α-CD; format: binding; settings: α-CD 0-2.3 mM
Protocol: Preliminary spectral studies reveal that absorption maxima for L.Zn (Scheme 1, Formula 1A) (463 nm) tend to shift to shorter wavelength (458 nm) on addition of aqueous solution of α-CD (0-2.3 mM) in excess to the […] solution of L.Zn (Scheme 1, Formula 1A). Formation of host-guest type inclusion complex on addition of trans-1,2-bis-(4-pyridyl)ethylene, 4,4′-azopyridine (AZP) and some related bipyridine/biphenyl molecules in α-CD is reported by several researcher (Shukla, A. D.; Bajaj, H. C.; Das, A. Angew. Chem. Int. Ed. 2001, 40, 446.; Shukla, A. D.; Bajaj, H. C., Das, A. Nat. Acad. Science, 2002, 114, 431.; Beer, A. J.; Macartney, D. H. Inorg. Chem. 2000, 39, 1410.; Macartney, D. H.; Waddling, C. A.; Inorg. Chem. 1994, 33, 5912.; Philip, D.; Stoddart, J. F. Angew. Chem. Int. Ed. 1996, 35, 1154). It is also reported that inclusion in these compounds in the CD cavity influences the HOMO-LUMO energy gap and there by the absorption spectral bands-though the perturbation of the energy levels are not reported to be an appreciable one. Thus, in this present study, the observed shift of 5 nm could be attributed to the inclusion phenomena and the formation of a pseudo-rotaxane complex.
General formula that was used for calculating the binding constants from UV-vis titrations is given below:
Binding Constant,K=[L.Zn.CD]/{[L.Zn]free[CD]free} (5) […]

[2] = system: eukaryotic and prokaryotic (Gram +ve/Gram −ve) cells; test: Staining of eukaryotic and prokaryotic cells, time needed and differentiation; format: cell-based
Protocol: Using the present Zn(II)-reagent (L.Zn) in presence of α-CD, eukaryotic and prokaryotic (Gram +ve/Gram −ve) cells could be stained with only 2 minutes incubation; while for the previous reagent (1.Zn) cells were needed to be incubated for 10 minutes for color development. Further, intensity of color of the stained cell (using present Zn(II)-complex was much more intense as compared to that reported earlier.
(§1) We also explored the possibility of using L.Zn/L.Zn.α-CD as the staining agent for prokaryotes (Gram +ve and Gram −ve bacterial cells). […] As expected stained cells for Gram +ve bacteria appeared longer as compared to those of the stained Gram −ve bacteria. The difference in the staining intensity for two different bacteria with the L.Zn.α-CD (Scheme 2) could be much better understood after going into the depth of cell biology of each bacterial cells and the detailed biochemistry involved while staining; besides, difference in cell structure and cell wall composition of the respective bacteria. […] Changes on the cell surfaces on binding of the dye, L.Zn (Scheme 1, Formula 1A) were also evident from the SEM images recorded for Gram −ve and Gram +ve bacteria, in absence and presence of staining agent (FIGS. 11C to 11F). […] The growth profile of Eukaryotic Yeast cells (Saccharomyces cerevisiae) and Prokaryotic bacterial cells ([…]) in an aqueous culture medium in absence and presence of L.Zn (Scheme 1, Formula 1A) are shown in FIG. 12. Change in absorbance (at λmax=600 nm) vs time (t) was plotted up to 30 h; as no appreciable change in growth was observed thereafter. […] FIGS. 12a, 12c and 12e show the actual growth curve of Saccharomyces cerevisiae, Pseudomonas fluorescence and Bacillus megaterium, respectively with time. While, FIGS. 12b, 12d and 12f show relative build up of ATP in cytoplasm with time for Saccharomyces cerevisiae, Pseudomonas fluorescence and Bacillus megaterium, respectively in presence of L.Zn (Scheme 1, Formula 1A) (D1) and L.Zn.α-CD (Scheme 2) (D2). […]

[3] = system: living microbes (eukaryotes and prokaryotes); test: Toxicity and viability of cells after staining; format: cell-based
Description: as §1, with “11F). Difference in the contrasts in the SEM images of the sample surfaces also signifies the non-homogeneous chemical nature of the sample surface. Relatively brighter cell exterior for Gram −ve bacteria, as compared to the Gram +ve one indicates the accumulation of higher negative charge on the extra-cellular surface.” for “11F).”

CN(C)c1ccc(N=Nc2ccc(S(=O)(=O)N3CCCNCCNCCCNCC3)cc2)cc1.O=[N+]([O-])[O-].O=[N+]([O-])[O-].[Zn+2] [L.Zn]
association constant of inclusion complex with α-CD ([1]; aqueous solution): 255 (+15) M^−1 | association constant of inclusion complex with α-CD ([1]; aqueous solution (as printed in b187)): 255 (±15) M^1 | incubation time needed for staining ([2]; in presence of α-CD): 2 min | distinguishing Gram +ve and Gram −ve bacteria ([2]; through different color intensities and shape of the stained cells): could also distinguish Gram +ve and Gram −ve bacteria | time in which staining takes place ([2]; without α-CD): 10 to 20 min | growth of stained cells in their respective media ([3]; after staining): stained cells were found to grow in their respective media | toxicity to living cells ([3]; eukaryotes and prokaryotes, cell proliferation and growth after staining): non-toxic; also recorded: non toxic | viability of stained cells, hanging drop in concavity slide ([3]; light microscope, until 3 h): cell growth, cell division, as well as their motility could be observed

From patent US20130130306A1, “ZN (II) BASED COLORIMETRIC SENSOR AND PROCESS FOR THE PREPARATION THEREOF” (COUNCIL OF SCIENTIFIC & INDUSTRIAL RESEARCH, priority 2010, published 2013)
